In patent US5587392A, “Azolyl methyl phenyl derivatives having aromatase inhibitory activity” (Mochida Pharmaceutical Co., Ltd., priority 1994, dated 1996):
Read-outs that look alike come from different tables or passages of the source.

How the values were obtained:
aromatase from rat ovary = target: T1, aromatase from rat ovary (Rattus norvegicus, UniProt P22443); test: Inhibitory activity on aromatase from rat ovary; type: biochemical
T1 construct: Using as an enzyme sample the ovarian microsome fraction from a female rat; from tissue; host or cells: rat ovary, microsome fraction (female rat)
T1 sequence (P22443 1-508): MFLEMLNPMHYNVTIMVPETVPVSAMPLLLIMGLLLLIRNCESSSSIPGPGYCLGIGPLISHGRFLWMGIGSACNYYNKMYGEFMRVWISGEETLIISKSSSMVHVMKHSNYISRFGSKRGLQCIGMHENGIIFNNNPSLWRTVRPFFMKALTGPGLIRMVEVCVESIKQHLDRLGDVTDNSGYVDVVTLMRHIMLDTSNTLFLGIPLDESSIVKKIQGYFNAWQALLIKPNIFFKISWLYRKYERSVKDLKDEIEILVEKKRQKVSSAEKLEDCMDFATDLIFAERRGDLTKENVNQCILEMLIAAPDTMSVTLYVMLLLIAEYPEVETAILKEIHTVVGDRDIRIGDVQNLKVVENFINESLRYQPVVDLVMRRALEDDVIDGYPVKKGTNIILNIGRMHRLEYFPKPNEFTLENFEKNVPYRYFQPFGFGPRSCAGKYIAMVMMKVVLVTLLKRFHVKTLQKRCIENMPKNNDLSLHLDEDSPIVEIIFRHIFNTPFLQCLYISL

plasma estradiol = test: Decreasing activity on blood estrogen (plasma estradiol, PMSG-treated rats); type: in vivo, female SD rats; details: Rattus norvegicus, po, 4 hours after dosing, read-out: Ratio in plasma estradiol decrease; for inhibition in vivo at 0.01 mg/kg: 0.01 mg/kg orally; for inhibition in vivo at 0.1 mg/kg: 0.1 mg/kg orally
Method: More specifically, pregnant mare serum gonadotropin (PMSG) was subcutaneously administered to female SD rats aged 3 weeks, at a dose of 200 IU/rat. […] Four hours after the dosing of the test compound, blood was sampled, and plasma estradiol was messuered by radioimmunoassay(RIA). The decreasing ratio (%) in plasma estradiol levels was calculated by comparing with control groups.

[1] = tested on: estrogen-dependent diseases; details: related art; cited from earlier work
aromatase = details: related art; cited from earlier work
[2] = related art; cited from earlier work
[3] = rat ovarian microsomes, 30 nM [1β-3H] androstenedione, pH 7.4, 37° C., 15 minutes, read-out: IC50 value

Compound: Cn1cnc2ccc(Oc3ccc(Cl)cc3Cn3cncn3)cc21 [Example 68, 6-[4-chloro-2-(1H-1,2,4-triazol-1-ylmethyl)phenoxy]-1-methylbenzimidazole]
- IC50 (aromatase from rat ovary; [3]): 2600 pM

Compound: Cn1nnc2ccc(Oc3ccc([N+](=O)[O-])cc3Cn3cncn3)cc21 [Example 50, 1-methyl-6-[4-nitro-2-(1H-1,2,4-triazol-1-ylmethyl)phenoxy]-1H-benzotriazole]
- IC50 (aromatase from rat ovary; [3]): 500 pM
- inhibition in vivo at 0.01 mg/kg (plasma estradiol): 59%

Compound: CCn1nnc2ccc(Oc3ccc(Cl)cc3Cn3cncn3)cc21 [Example 67, 6-[4-chloro-2-(1H-1,2,4-triazol-1-ylmethyl)phenoxy]-1-ethyl-1H-benzotriazole]
- IC50 (aromatase from rat ovary; [3]): 600 pM

Compound: Cn1nnc2ccc(Oc3ccc(OC(F)(F)F)cc3Cn3cncn3)cc21 [Example 48, 1-Methyl-6-[4-(trifluoromethoxy)-2-(1H-1,2,4-triazol-1-ylmethyl)phenoxy]-1H-benzotriazole]
- IC50 (aromatase from rat ovary): 900 pM
- inhibition in vivo at 0.01 mg/kg (plasma estradiol): 30%

Compound: CC/C(=C(\c1ccccc1)c1ccc(OCCN(C)C)cc1)c1ccccc1 [tamoxifen]
- therapeutical efficacy [1]: clinically satisfactory effect cannot be brought about from such administration alone

Compound: Cn1nnc2ccc(Sc3ccc(Cl)cc3Cn3cncn3)cc21 [Example 71, 6-[4-chloro-2-(1H-1,2,4-triazol-1-ylmethyl)phenylthio]-1-methyl-1H-benzotriazole]
- IC50 (aromatase from rat ovary; [3]): 1200 pM

Compound: Cn1nnc2ccc(Oc3ccc(Br)cc3Cn3cncn3)cc21 [Example 43, 6-[4-bromo-2-(1H-1,2,4-triazol-1-ylmethyl)phenoxy]-1-methyl-1H-benzotriazole]
- IC50 (aromatase from rat ovary; [3]): 300 pM
- inhibition in vivo at 0.01 mg/kg (plasma estradiol): 41%
- inhibition in vivo at 0.1 mg/kg (plasma estradiol): 69%

Compound: Cn1nnc2ccc(Cc3ccc(Cl)cc3Cn3cncn3)cc21 [Example 79, 6-[4-chloro-2-(1H-1,2,4-triazol-1-ylmethyl)benzyl]-1-methyl-1H-benzotriazole]
- IC50 (aromatase from rat ovary; [3]): 700 pM

Compound: Cn1nnc2ccc(Oc3cc(Cl)ccc3Cn3cncn3)cc21 [Example 49, 6-[5-Chloro-2-(1H-1,2,4-triazol-1-ylmethyl)phenoxy]-1-methyl-1H-benzotriazole]
- IC50 (aromatase from rat ovary; [3]): 1500 pM

Compound: CC(=O)N1CCN(c2ccc(OCC3COC(Cn4ccnc4)(c4ccc(Cl)cc4Cl)O3)cc2)CC1 (centres unmarked) [ketoconazole]
- aromatase inhibitory action (aromatase): have aromatase inhibitory activities as well

Compound: C#Cc1ccc(Oc2ccc3nnn(C)c3c2)c(Cn2cncn2)c1 [Example 58, 6-[4-ethynyl-2-(1H-1,2,4-triazol-1-ylmethyl)phenoxy]-1-methyl-1H-benzotriazole]
- IC50 (aromatase from rat ovary; [3]): 300 pM

Compound: C=Cc1ccc(Oc2ccc3nnn(C)c3c2)c(Cn2cncn2)c1 [Example 56]
- IC50 (aromatase from rat ovary; [3]): 300 pM

Compound: Cn1nnc2ccc(Oc3ccc(Cl)cc3Cn3ccnc3)cc21 [Example 38, 6-[4-chloro-2-(1H-imidazol-1-ylmethyl)phenoxy]-1-methyl-1H-benzotriazole]
- IC50 (aromatase from rat ovary; [3]): 400 pM
- inhibition in vivo at 0.1 mg/kg (plasma estradiol): 44%

Compound: Clc1ccc(Oc2cccc3ccccc23)c(Cn2ccnc2)c1 [Example 5, 1-[5-chloro-2-(1-naphthyloxy)benzyl]-1H-imidazole]
- IC50 (aromatase from rat ovary; [3]): 6000 pM

Compound: Cn1nnc2ccc(Oc3ccc(I)cc3Cn3cncn3)cc21 [Example 46, 6-[4-Iodo-2-(1H-1,2,4-triazol-1-ylmethyl)phenoxy]-1-methyl-1H-benzotriazole]
- IC50 (aromatase from rat ovary; [3]): 400 pM
- inhibition in vivo at 0.01 mg/kg (plasma estradiol): 36%

Compound: C[C@]12C=CC(=O)C=C1CC[C@@H]1[C@@H]2CC[C@]2(C)OC(=O)CC[C@@H]12 [testolactone]
- therapeutical efficacy [1]: never exerts sufficient therapeutical efficacy
- absorption when administered orally [2]: poorly absorbed when administered orally

Compound: Clc1ccc(Oc2ccc3[nH]nnc3c2)c(Cn2cncn2)c1 [Example 40, 5-[4-chloro-2-(1H-1,2,4-triazol-1-ylmethyl)phenoxy]-1H-benzotriazole]
- IC50 (aromatase from rat ovary; [3]): 600 pM

Compound: Cn1nnc2ccc(Oc3ccc(C=O)cc3Cn3cncn3)cc21 [Example 53, 4-[6-(1-methyl-1H-benzotriazoyloxy)]-3-(1H-1,2,4-triazol-1-ylmethyl)benzaldehyde]
- IC50 (aromatase from rat ovary; [3]): 800 pM

Compound: CC(=O)c1ccc(Oc2ccc3nnn(C)c3c2)c(Cn2cncn2)c1 [Example 51, 4-[6-(1-methyl-1H-benzotriazoyloxy)]-3-(1H-1,2,4-triazol-1-ylmethyl)acetophenone]
- IC50 (aromatase from rat ovary; [3]): 1200 pM

Compound: Clc1ccc(COC(Cn2ccnc2)c2ccc(Cl)cc2Cl)c(Cl)c1 (centres unmarked) [miconazole]
- aromatase inhibitory action (aromatase): have aromatase inhibitory activities as well

Compound: Cn1nnc2ccc(Oc3ccc(F)cc3Cn3cncn3)cc21 [Example 45, 6-[4-Fluoro-2-(1H-1,2,4-triazol-1-ylmethyl)phenoxy]-1-methyl-1H-benzotriazole]
- IC50 (aromatase from rat ovary; [3]): 3300 pM

Compound: Cn1nnc2ccc(Oc3ccccc3Cn3cncn3)cc21 [Example 44, 1-methyl-6-[2-(1H-1,2,4-triazol-1-ylmethyl)phenoxy]-1H-benzotriazole]
- IC50 (aromatase from rat ovary; [3]): 7800 pM
- inhibition in vivo at 0.1 mg/kg (plasma estradiol): 23%

Compound: CCOC(=O)c1ccc(Oc2ccc3nnn(C)c3c2)c(Cn2cncn2)c1 [Example 55, 4-[6-(1-methyl-1H-benzotriazoyloxy) ]-3-(1H-1,2,4-triazol-1-ylmethyl)benzoic acid ethyl ester]
- IC50 (aromatase from rat ovary; [3]): 1400 pM

Compound: COc1ccc(Oc2ccc3nnn(C)c3c2)c(Cn2cncn2)c1 [Example 47, 6-[4-Methoxy-2-(1H-1,2,4-triazol-1-ylmethyl)phenoxy]-1-methyl-1H-benzotriazole]
- IC50 (aromatase from rat ovary; [3]): 1600 pM

Compound: C[C@]12CCC(=O)C(O)=C1CC[C@@H]1[C@@H]2CC[C@]2(C)C(=O)CC[C@@H]12 [4-hydroxyandrostenedione]
- absorption when administered orally [2]: poorly absorbed when administered orally

Compound: Cn1nnc2ccc(Cc3ccc(C#N)cc3Cn3cncn3)cc21 [Example 80, 4-[(1-methyl-1H-benzotriazole-6-yl)methyl]-3-(1H-1,2,4-triazol-1-ylmethyl)benzonitrile]
- IC50 (aromatase from rat ovary; [3]): 1900 pM
- inhibition in vivo at 0.1 mg/kg (plasma estradiol): 49%

Compound: Clc1ccccc1C(c1ccccc1)(c1ccccc1)n1ccnc1 [clotrimazole]
- aromatase inhibitory action (aromatase): have aromatase inhibitory activities as well

Compound: Cn1nnc2ccc(Oc3ccc(C(F)(F)F)cc3Cn3cncn3)cc21 [Example 64, 6-[2-(1H-1,2,4-triazol-1-ylmethyl)-4-(trifluoromethyl)phenoxy]-1-methyl-1H-benzotriazole]
- IC50 (aromatase from rat ovary; [3]): 600 pM

Compound: Clc1ccc(Oc2ccc3ccccc3c2)c(Cn2ccnc2)c1 [Example 6, 1-[5-Chloro-2-(2-naphthyloxy)benzyl]-1H-imidazole]
- IC50 (aromatase from rat ovary; [3]): 9900 pM
